Laboratory results as given in the NIST ThermoML archive (doi:10.1016/j.jct.2005.10.019).

Assays:
[1] = 298.15 K; 101.33 kPa; Liquid
[2] = excess molar enthalpy (molar enthalpy of mixing); xn = mol fraction of the nth substance listed; conditions: 298.15 K, 101 kPa, Liquid

COC(=O)[C@H](C)CO [(2R)-3-hydroxy-2-methyl-propanoic acid methyl ester]
Conditions | mass density [kg/m3]
[1] | 1067.5

COC(=O)[C@H](C)CO [(2R)-3-hydroxy-2-methyl-propanoic acid methyl ester] + COC(=O)[C@@H](C)CO
[2]
Conditions | excess molar enthalpy [kcal/mol]
x2 = 0.08854 | 0.000741
x2 = 0.08893 | 0.000787
x2 = 0.08959 | 0.00072
x2 = 0.1627 | 0.00131
x2 = 0.1633 | 0.00127
x2 = 0.1645 | 0.0013
x2 = 0.2257 | 0.00171
x2 = 0.2265 | 0.00168
x2 = 0.2279 | 0.00172
x2 = 0.2798 | 0.00199
x2 = 0.2808 | 0.00198
x2 = 0.2825 | 0.002
x2 = 0.3269 | 0.00218
x2 = 0.328 | 0.00217
x2 = 0.3298 | 0.00221
x2 = 0.3682 | 0.00232
x2 = 0.3693 | 0.00231
x2 = 0.3713 | 0.00234
x2 = 0.4048 | 0.00241
x2 = 0.4059 | 0.00239
x2 = 0.4079 | 0.00242
x2 = 0.4373 | 0.00247
x2 = 0.4385 | 0.00246
x2 = 0.4405 | 0.00248
x2 = 0.4665 | 0.00251
x2 = 0.4677 | 0.00249
x2 = 0.4697 | 0.0025
x2 = 0.4928 | 0.00251
x2 = 0.4939 | 0.0025
x2 = 0.496 | 0.0025
x2 = 0.5037 | 0.00253
x2 = 0.5048 | 0.00253
x2 = 0.53 | 0.00252
x2 = 0.5311 | 0.00252
x2 = 0.5592 | 0.00248
x2 = 0.5602 | 0.00249
x2 = 0.5918 | 0.00242
x2 = 0.5928 | 0.00243
x2 = 0.6285 | 0.00233
x2 = 0.6294 | 0.00233
x2 = 0.6699 | 0.00218
x2 = 0.6709 | 0.00218
x2 = 0.7173 | 0.00196
x2 = 0.7182 | 0.00198
x2 = 0.7718 | 0.00167
x2 = 0.7726 | 0.00168
x2 = 0.8354 | 0.00125
x2 = 0.836 | 0.00126
x2 = 0.9103 | 0.000702
x2 = 0.9107 | 0.000702

ClC[C@H]1CO1 [(2R)-(chloromethyl)-oxirane]
Conditions | mass density [kg/m3]
[1] | 1093.3

ClC[C@H]1CO1 [(2R)-(chloromethyl)-oxirane] + ClC[C@@H]1CO1
[2]
Conditions | excess molar enthalpy [kcal/mol]
x2 = 0.01821 | 0.000204
x2 = 0.03578 | 0.000396
x2 = 0.05272 | 0.000577
x2 = 0.05939 | 0.000663
x2 = 0.06908 | 0.000741
x2 = 0.08489 | 0.000891
x2 = 0.1002 | 0.00103
x2 = 0.1121 | 0.00114
x2 = 0.1149 | 0.00116
x2 = 0.1292 | 0.00128
x2 = 0.1373 | 0.00133
x2 = 0.1431 | 0.00139
x2 = 0.1565 | 0.0015
x2 = 0.1593 | 0.00151
x2 = 0.1695 | 0.00159
x2 = 0.1706 | 0.00162
x2 = 0.1821 | 0.00169
x2 = 0.1943 | 0.00178
x2 = 0.2016 | 0.00181
x2 = 0.2399 | 0.00203
x2 = 0.2414 | 0.00209
x2 = 0.2748 | 0.00227
x2 = 0.2915 | 0.00239
x2 = 0.3065 | 0.00236
x2 = 0.3231 | 0.0025
x2 = 0.3356 | 0.00249
x2 = 0.3624 | 0.00263
x2 = 0.3693 | 0.00266
x2 = 0.3816 | 0.00275
x2 = 0.387 | 0.0027
x2 = 0.3889 | 0.00272
x2 = 0.4009 | 0.00275
x2 = 0.4099 | 0.00279
x2 = 0.417 | 0.00276
x2 = 0.4311 | 0.00279
x2 = 0.4384 | 0.00282
x2 = 0.4431 | 0.00282
x2 = 0.4498 | 0.00286
x2 = 0.4508 | 0.00278
x2 = 0.4514 | 0.00285
x2 = 0.4837 | 0.00286
x2 = 0.4882 | 0.00289
x2 = 0.4884 | 0.00286
x2 = 0.5071 | 0.00291
x2 = 0.5269 | 0.00284
x2 = 0.5337 | 0.00287
x2 = 0.5394 | 0.00285
x2 = 0.5525 | 0.00286
x2 = 0.5886 | 0.0028
x2 = 0.5902 | 0.00281
x2 = 0.6096 | 0.00273
x2 = 0.6221 | 0.00272
x2 = 0.6561 | 0.00261
x2 = 0.7008 | 0.0024
x2 = 0.741 | 0.00221
x2 = 0.7793 | 0.00196
x2 = 0.7927 | 0.00187
x2 = 0.8067 | 0.00171
x2 = 0.8211 | 0.00161
x2 = 0.8241 | 0.00165
x2 = 0.8361 | 0.00151
x2 = 0.8513 | 0.00144
x2 = 0.8516 | 0.00137
x2 = 0.8677 | 0.00129
x2 = 0.8844 | 0.00113
x2 = 0.9018 | 0.000956
x2 = 0.9198 | 0.000791
x2 = 0.9387 | 0.000621
x2 = 0.9583 | 0.000422
x2 = 0.9787 | 0.000218

COC(=O)[C@@H](C)CO [(2S)-3-hydroxy-2-methyl-propanoic acid methyl ester]
Conditions | mass density [kg/m3]
[1] | 1069.6

ClC[C@@H]1CO1 [(2S)-chloromethyl-oxirane]
Conditions | mass density [kg/m3]
[1] | 1093.5

C[C@@H]1COC(=O)O1 [(R)-4-methyl-1,3-dioxolan-2-one]
Conditions | mass density [kg/m3]
[1] | 1199.4
